Measurements as given in ChEMBL document CHEMBL4627280, “Discovery of disubstituted xylylene derivatives as small molecule direct inhibitors of Keap1-Nrf2 protein-protein interaction” (Bioorg Med Chem, 2020).

Assays:
[1] = Metabolic stability in human liver microsomes assessed as parent compound remaining at 0.1 mM measured after 90 mins by LC/MS analysis; type: ADME, Microsome; conditions: read-out: Stability
[2] = target: Kelch-like ECH-associated protein 1 (Homo sapiens, UniProt Q14145); assay: Inhibition of FITC-LDEETGEFL-NH2 binding to recombinant human Keap1 Kelch domain (321 to 609 residues) expressed in Escherichia Coli BL21(DE3)pLysS cells centrifuged for 2 mins followed by 30 mins incubation under shaking condition by fluorescence polarization assay
Sequence of Kelch-like ECH-associated protein 1 (Q14145 whole entry, the tested form may be a part): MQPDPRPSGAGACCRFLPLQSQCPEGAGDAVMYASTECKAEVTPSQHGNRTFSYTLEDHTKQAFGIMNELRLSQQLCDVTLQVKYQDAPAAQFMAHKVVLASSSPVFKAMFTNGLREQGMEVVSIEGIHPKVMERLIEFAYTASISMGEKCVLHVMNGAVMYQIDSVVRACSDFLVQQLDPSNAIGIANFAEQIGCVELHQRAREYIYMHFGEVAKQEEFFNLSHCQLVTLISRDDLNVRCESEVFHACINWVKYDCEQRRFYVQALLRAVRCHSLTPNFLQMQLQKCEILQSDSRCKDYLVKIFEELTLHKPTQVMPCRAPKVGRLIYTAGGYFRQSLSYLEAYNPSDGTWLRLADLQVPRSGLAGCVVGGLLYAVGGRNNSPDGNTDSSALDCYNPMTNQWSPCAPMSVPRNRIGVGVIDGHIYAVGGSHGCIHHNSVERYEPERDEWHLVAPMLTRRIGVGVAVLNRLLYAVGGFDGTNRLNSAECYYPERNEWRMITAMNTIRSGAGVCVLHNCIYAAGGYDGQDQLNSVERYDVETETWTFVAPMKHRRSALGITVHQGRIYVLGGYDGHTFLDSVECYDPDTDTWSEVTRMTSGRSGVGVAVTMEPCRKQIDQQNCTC

| remaining at 1.5 h, 100 µM [1] [%] | IC50 [2] [nM] | SMILES |
| --- | --- | --- |
| 98.2 |  | COc1ccc(S(=O)(=O)N(Cc2ccccc2CN([C@@H](C)C(=O)O)S(=O)(=O)c2ccc(OC)cc2)[C@@H](C)C(=O)O)cc1 |
| 97.7 | 2300 | COc1ccc(S(=O)(=O)N(CC(=O)O)Cc2ccccc2CN(CC(=O)O)S(=O)(=O)c2ccc(OC)cc2)cc1 |
| 56.9 |  | COc1ccc(S(=O)(=O)N(CC(=O)O)c2ccc(N(CC(=O)O)S(=O)(=O)c3ccc(OC)cc3)c3ccccc23)cc1 |
